Measurements reported in US10508085B2, “Compounds and methods for IDO and TDO modulation, and indications therefor” (Plexxikon Inc., priority 2016, dated 2019).
Like-named read-outs stand apart in the source and are kept apart here.

Legend:
[1] = molecular target: T1, human TDO (TDO-expressing HEK293 cells) (Homo sapiens, UniProt P48775); experiment: Cell based kynurenine assay, TDO-expressing HEK293 cell clones; details: TDO-expressing HEK293 cells, geometric mean, read-out: HEK293 TDO Kynurenine GMean IC50 (μM) (Cellular Assay)
T1 construct: expressed in transfected cells
Outline: (§1)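 Steps: seed IDO1- or TDO-expressing HEK293 cells at 2.5×10^4 per well; add compound dilutions; incubate 24 h; transfer supernatant and determine kynurenine; derive IC50 via nonlinear regression of percent inhibition.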

[2] = molecular target: T2, human IDO (IDO1-expressing HEK293 cells) (Homo sapiens, UniProt P14902); experiment: Cell based kynurenine assay, IDO1-expressing HEK293 cell clones; details: IDO1-expressing HEK293 cells, geometric mean, read-out: HEK293 IDO1 Kynurenine GMean IC50 (μM) (Cellular Assay)
T2 construct: expressed in transfected cells
Outline: as §1

[3] = molecular target: T3, Human Tryptophan 2,3-dioxygenase (TDO) (Homo sapiens, UniProt P48775); experiment: Human TDO enzymatic assay (kynurenine level); assay type: biochemical; details: 1 nM TDO, 350 μM L-Trp; geometric mean; read-out: TDO GMean: IC50 (μM) (Biochemical Assay)
T3 construct: His tag (N); made in house; host or cells: E. coli
Outline: (§2)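 IDO conditions: 6 nM His-IDO, 10 μM L-Trp, 5 μM methylene blue, 20 min, RT. TDO conditions: 1 nM His-TDO, 350 μM L-Trp, 0.4 μM methylene blue, 70 min, RT. Both used pH 6.5 phosphate plus ascorbate/catalase, TCA stop at 50° C, kynurenine readout, nonlinear-regression IC50.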

[4] = molecular target: T4, Human Indoleamine 2,3-dioxygenase (IDO) (Homo sapiens, UniProt P14902); experiment: Human IDO enzymatic assay (kynurenine level); assay type: biochemical; details: 6 nM IDO, 10 μM L-Trp; geometric mean; read-out: IDO1 GMean: IC50 (μM) (Biochemical Assay)
T4 construct: His tag (N); made in house; host or cells: E. coli
Outline: as §2

T2 sequence (P14902 whole entry): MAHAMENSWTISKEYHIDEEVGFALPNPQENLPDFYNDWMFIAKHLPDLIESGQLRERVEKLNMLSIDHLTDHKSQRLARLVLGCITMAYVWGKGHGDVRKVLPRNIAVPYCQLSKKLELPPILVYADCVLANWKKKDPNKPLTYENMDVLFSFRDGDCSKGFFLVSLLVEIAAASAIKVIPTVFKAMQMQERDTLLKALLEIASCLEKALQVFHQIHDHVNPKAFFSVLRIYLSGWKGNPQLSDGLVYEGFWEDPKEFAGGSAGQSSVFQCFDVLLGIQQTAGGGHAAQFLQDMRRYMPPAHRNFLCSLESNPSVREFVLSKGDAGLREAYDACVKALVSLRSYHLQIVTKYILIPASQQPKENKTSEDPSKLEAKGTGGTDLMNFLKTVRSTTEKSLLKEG
T4 sequence (P14902 whole entry): as above
T1 sequence (P48775 whole entry): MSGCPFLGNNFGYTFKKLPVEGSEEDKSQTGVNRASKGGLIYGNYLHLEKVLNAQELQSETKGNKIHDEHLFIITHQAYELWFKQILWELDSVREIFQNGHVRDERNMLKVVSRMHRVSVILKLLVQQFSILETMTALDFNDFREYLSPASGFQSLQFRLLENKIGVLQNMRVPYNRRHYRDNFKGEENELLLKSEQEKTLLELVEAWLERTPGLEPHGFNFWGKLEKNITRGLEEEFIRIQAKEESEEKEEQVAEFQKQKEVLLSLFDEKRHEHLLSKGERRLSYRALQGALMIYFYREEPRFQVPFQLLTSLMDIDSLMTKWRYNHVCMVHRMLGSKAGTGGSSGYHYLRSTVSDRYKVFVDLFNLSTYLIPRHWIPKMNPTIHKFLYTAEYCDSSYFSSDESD
T3 sequence (P48775 whole entry): as above

Row | Structure (SMILES) | IC50 ([1]; 24 hours incubation) | IC50 ([2]; 24 hours incubation) | IC50 [3] | IC50 [4] | IC50 ([1]; 24 hours) | IC50 ([2]; 24 hours)
1 | CC(C)(C(O)c1c(F)c(Cl)cc2cn[nH]c12)[C@H]1C[C@H]2CC[C@@H](C1)N2S(C)(=O)=O (stereo partly drawn) [Compound P-0285, 1-(5-chloro-6-fluoro-1H-indazol-7-yl)-2-methyl-2-((1R,3r,5S)-8-(methylsulfonyl)-8-azabicyclo[3.2.1]octan-3-yl)propan-1-ol] | 0.0001 to 10 µM | 0.0001 to 10 µM | 0.0001 to 10 µM | 0.0001 to 10 µM | – | –
2 | OC(c1c(F)c(Cl)cc2cn[nH]c12)C(F)(F)C1CCOCC1 (stereo not shown) [Compound P-0262, 1-(5-chloro-6-fluoro-1H-indazol-7-yl)-2,2-difluoro-2-(tetrahydro-2H-pyran-4-yl)ethan-1-ol] | 0.0001 to 10 µM | 0.0001 to 10 µM | 0.0001 to 10 µM | 0.0001 to 10 µM | – | –
3 | CC(C)(C)NC(=O)N1CCC(C(C)(C)C(O)c2cc(Cl)cc3cn[nH]c23)CC1 (stereo not shown) [Compound P-0356, N-(tert-butyl)-4-(1-(5-chloro-1H-indazol-7-yl)-1-hydroxy-2-methylpropan-2-yl)piperidine-1-carboxamide] | 0.0001 to 10 µM | 0.0001 to 10 µM | 0.0001 to 10 µM | 0.0001 to 10 µM | – | –
4 | CN(C)C(C)(C)C(O)c1cc(Cl)cc2cn[nH]c12 (stereo not shown) [Compound P-0230, 1-(5-chloro-1H-indazol-7-yl)-2-(dimethylamino)-2-methylpropan-1-ol] | > 10 µM | > 10 µM | 10 to 100 µM | 10 to 100 µM | – | –
5 | CC(C)(C)OC(=O)N1CCC(C(F)(F)[C@H](O)c2c3c(cc4cn[nH]c24)CC3)CC1 [Compound P-0527, tert-butyl (R)-4-(2-(5,6-dihydro-1H-cyclobuta[f]indazol-7-yl)-1,1-difluoro-2-hydroxyethyl) piperidine-1-carboxylate] | – | – | 10 to 100 µM | 0.0001 to 10 µM | 0.0001 to 10 µM | 0.0001 to 10 µM
6 | CC(C)(C1CCN(C(=O)Nc2ccc(Cl)cc2)CC1)C(O)c1cc(Cl)cc2cn[nH]c12 (stereo not shown) [Compound P-0361, 4-(1-(5-chloro-1H-indazol-7-yl)-1-hydroxy-2-methylpropan-2-yl)-N-(4-chlorophenyl) piperidine-1-carboxamide] | 0.0001 to 10 µM | 0.0001 to 10 µM | 0.0001 to 10 µM | 0.0001 to 10 µM | – | –
7 | O=C(NCC1CCOCC1)N1CCC(C(F)(F)C(O)c2cc(Cl)cc3cn[nH]c23)CC1 (stereo not shown) [Compound P-0468, 4-(2-(5-chloro-1H-indazol-7-yl)-1,1-difluoro-2-hydroxyethyl)-N-((tetrahydro-2H-pyran-4-yl)methyl)piperidine-1-carboxamide] | – | – | 0.0001 to 10 µM | 0.0001 to 10 µM | 0.0001 to 10 µM | 0.0001 to 10 µM
8 | CCC(CC)(CC)C(O)c1cc(Cl)cc2cn[nH]c12 (stereo not shown) [Compound P-0267, 1-(5-chloro-1H-indazol-7-yl)-2,2-diethylbutan-1-ol] | 0.0001 to 10 µM | 0.0001 to 10 µM | 0.0001 to 10 µM | 0.0001 to 10 µM | – | –
9 | CNC(=O)N1CCC(C(C)(C)[C@@H](O)c2cc(Cl)cc3cn[nH]c23)CC1 [Compound P-0427, (R)-4-(1-(5-chloro-1H-indazol-7-yl)-1-hydroxy-2-methylpropan-2-yl)-N-methylpiperidine-1-carboxamide] | – | – | 0.0001 to 10 µM | 0.0001 to 10 µM | 0.0001 to 10 µM | 0.0001 to 10 µM
10 | C[C@H](NC(=O)N1CCC(C(C)(C)C(O)c2cc(Cl)cc3cn[nH]c23)CC1)c1ccccn1 (stereo partly drawn) [Compound P-0478, 4-(1-(5-chloro-1H-indazol-7-yl)-1-hydroxy-2-methylpropan-2-yl)-N-((S)-1-(pyridin-2-yl)ethyl)piperidine-1-carboxamide] | – | – | 0.0001 to 10 µM | 0.0001 to 10 µM | 0.0001 to 10 µM | 0.0001 to 10 µM
11 | CC(C)(Cc1ccccc1)C(O)c1cc(Cl)cc2cn[nH]c12 (stereo not shown) [Compound P-0026, 1-(5-chloro-1H-indazol-7-yl)-2,2-dimethyl-3-phenylpropan-1-ol] | 0.0001 to 10 µM | 0.0001 to 10 µM | 0.0001 to 10 µM | 0.0001 to 10 µM | – | –
12 | CC(C)(C1CCN(C(=O)c2cccnc2)CC1)C(O)c1cc(Cl)cc2cn[nH]c12 (stereo not shown) [Compound P-0362, (4-(1-(5-chloro-1H-indazol-7-yl)-1-hydroxy-2-methylpropan-2-yl)piperidin-1-yl)(pyridin-3-yl)methanone] | 0.0001 to 10 µM | 0.0001 to 10 µM | 0.0001 to 10 µM | 0.0001 to 10 µM | – | –
13 | CC(C)(C1CCN(C(=O)Nc2cccnc2)CC1)[C@H](O)c1cc(Cl)cc2cn[nH]c12 [Compound P-0554, (S)-4-(1-(5-chloro-1H-indazol-7-yl)-1-hydroxy-2-methylpropan-2-yl)-N-(pyridin-3-yl)piperidine-1-carboxamide] | – | – | 0.0001 to 10 µM | 0.0001 to 10 µM | 0.0001 to 10 µM | 0.0001 to 10 µM
14 | CC(C)(C1CCCC1)C(O)c1cc(Cl)cc2cn[nH]c12 (stereo not shown) [Compound P-0199, 1-(5-chloro-1H-indazol-7-yl)-2-cyclopentyl-2-methylpropan-1-ol] | 0.0001 to 10 µM | 0.0001 to 10 µM | 0.0001 to 10 µM | 0.0001 to 10 µM | – | –
15 | CC(C)(C1CCN(C(=O)Nc2ccc(OC(F)(F)F)cc2)CC1)C(O)c1cc(Cl)cc2cn[nH]c12 (stereo not shown) [Compound P-0403, 4-(1-(5-chloro-1H-indazol-7-yl)-1-hydroxy-2-methylpropan-2-yl)-N-(4-(trifluoromethoxy)phenyl)piperidine-1-carboxamide] | 0.0001 to 10 µM | 0.0001 to 10 µM | 0.0001 to 10 µM | 0.0001 to 10 µM | – | –
16 | COCC(=O)N1CCC(C(F)(F)C(O)c2cc(Cl)cc3cn[nH]c23)CC1 (stereo not shown) [Compound P-0350, 1-(4-(2-(5-chloro-1H-indazol-7-yl)-1,1-difluoro-2-hydroxyethyl)piperidin-1-yl)-2-methoxyethan-1-one] | 0.0001 to 10 µM | 0.0001 to 10 µM | 0.0001 to 10 µM | 0.0001 to 10 µM | – | –
17 | NC(=O)N1CCC(C2(C(O)c3cc(Cl)cc4cn[nH]c34)CC2)CC1 (stereo not shown) [Compound P-0156, 4-(1-((5-chloro-1H-indazol-7-yl)(hydroxy)methyl)cyclopropyl)piperidine-1-carboxamide] | 0.0001 to 10 µM | 0.0001 to 10 µM | 0.0001 to 10 µM | 0.0001 to 10 µM | – | –
18 | CC1(C(O)c2cccc3cncn23)CCCCC1 (stereo not shown) [Compound P-0061, imidazo[1,5-a]pyridin-5-yl(1-methylcyclohexyl)methanol] | > 10 µM | 0.0001 to 10 µM | 0.0001 to 10 µM | 0.0001 to 10 µM | – | –
19 | CC1(C(O)c2cc(Cl)cc3cn[nH]c23)CCC1 (stereo not shown) [Compound P-0117, (5-chloro-1H-indazol-7-yl)(1-methylcyclobutyl)methanol] | 0.0001 to 10 µM | 0.0001 to 10 µM | 0.0001 to 10 µM | 0.0001 to 10 µM | – | –
20 | O=C(Cc1ccc(F)c(Cl)c1)N1CCC(C(F)(F)C(O)c2cc(Cl)cc3cn[nH]c23)CC1 (stereo not shown) [Compound P-0524, 1-(4-(2-(5-chloro-1H-indazol-7-yl)-1,1-difluoro-2-hydroxyethyl)piperidin-1-yl)-2-(3-chloro-4-fluorophenyl) ethan-1-one] | – | – | 0.0001 to 10 µM | 0.0001 to 10 µM | 0.0001 to 10 µM | 0.0001 to 10 µM
21 | CC(C)(C)OC(=O)N1CCC(C(F)(F)[C@H](O)c2cc(Cl)cc3cn[nH]c23)CC1 [Compound P-0516, tert-butyl (R)-4-(2-(5-chloro-1H-indazol-7-yl)-1,1-difluoro-2-hydroxyethyl) piperidine-1-carboxylate] | – | – | 0.0001 to 10 µM | 0.0001 to 10 µM | 0.0001 to 10 µM | 0.0001 to 10 µM
22 | OC1(c2cc(Cl)cc3cn[nH]c23)CC(c2ccccc2)C1 (stereo not shown) [Compound P-0201, 1-(5-chloro-1H-indazol-7-yl)-3-phenylcyclobutan-1-ol] | > 10 µM | > 10 µM | 0.0001 to 10 µM | 0.0001 to 10 µM | – | –
23 | COC(=O)N1CCC(C(C)(C)[C@H](O)c2cc(Cl)cc3cn[nH]c23)CC1 [Compound P-0540, methyl (S)-4-(1-(5-chloro-1H-indazol-7-yl)-1-hydroxy-2-methylpropan-2-yl)piperidine-1-carboxylate] | – | – | 0.0001 to 10 µM | 0.0001 to 10 µM | 0.0001 to 10 µM | 0.0001 to 10 µM
24 | CC(=O)N1C[C@H]2CC[C@@H](C1)[C@H]2C(F)(F)C(O)c1c(F)c(Cl)cc2cn[nH]c12 (stereo partly drawn) [Compound P-0138, 1-((1R,5S,8s)-8-(2-(5-chloro-6-fluoro-1H-indazol-7-yl)-1,1-difluoro-2-hydroxyethyl)-3-azabicyclo[3.2.l]octan-3-yl)ethan-l-one] | 0.0001 to 10 µM | 0.0001 to 10 µM | 0.0001 to 10 µM | 0.0001 to 10 µM | – | –
25 | CC(C)(C1CCN(C(=O)C2CCC2)CC1)[C@H](O)c1cc(Cl)cc2cn[nH]c12 [Compound P-0498, (S)-(4-(1-(5-chloro-1H-indazol-7-yl)-1-hydroxy-2-methylpropan-2-yl)piperidin-1-yl)(cyclobutyl)methanone] | – | – | 0.0001 to 10 µM | 0.0001 to 10 µM | 0.0001 to 10 µM | 0.0001 to 10 µM
